Data on 1 compound can be found in US20150259300A1, “4-(ORTHO)-FLUOROPHENYL-5-FLUOROPYRIMIDIN-2-YL AMINES CONTAINING A SULFONE GROUP” (BAYER PHARMA AKTIENGESELLSCHAFT, priority 2012, published 2015).

Common to all, as to assay type: cell-based
One experiment concerns HeLa-MaTu-ADR cells. Kind of experiment: Proliferation assay (crystal violet), HeLa-MaTu-ADR. The settings on record: Homo sapiens, 96 h, 4 days, read-out: Inhibition of HeLa-MaTu-ADR cell proliferation IC50. How it is done: (§1) Cultivated tumour cells (HeLa, human cervical tumour cells, ATCC CCL-2; NCI-H460, human non-small cell lung carcinoma cells, ATCC HTB-177; A2780, human ovarian carcinoma cells, ECACC #93112519; DU 145, hormone-independent human prostate carcinoma cells, ATCC HTB-81; HeLa-MaTu-ADR, multidrug-resistant human cervical carcinoma cells, EPO-GmbH Berlin; Caco-2, human colorectal carcinoma cells, ATCC HTB-37; B 16F10, mouse melanoma cells, ATCC CRL-6475) were plated at a density of 5,000 cells/well (DU145, HeLa-MaTu-ADR), 3,000 cells/well (NCI-H460, HeLa), 2,500 cells/well (A2780), 1,500 cells/well (Caco-2), or 1,000 cells/well (B16F10) in a 96-well multititer plate in 200 μL of their respective growth medium supplemented 10% fetal calf serum. After 24 hours, the cells of one plate (zero-point plate) were stained with crystal violet (see below), while the medium of the other plates was replaced by fresh culture medium (200 to which the test substances were added in various concentrations (0 μM, as well as in the range of 0.001-10 μM; the final concentration of the solvent dimethyl sulfoxide was 0.5%). The cells were incubated for 4 days in the presence of test substances. Cell proliferation was determined by staining the cells with crystal violet: the cells were fixed by adding 20 μl/measuring point of an 11% glutaric aldehyde solution for 15 minutes at room temperature. […]

For the next experiment, the system named is Caco-2 cells. Kind of experiment: Proliferation assay (crystal violet), Caco-2. Conditions: Homo sapiens, 96 h; Caco-2, 4 days; read-out: Inhibition of Caco-2 cell proliferation IC50. The method, then: as §1
The next experiment relates to NCI-H460 cells. Kind of experiment: Proliferation assay (crystal violet), NCI-H460. The settings on record: Homo sapiens, 96 h; NCI-H460, 4 days; read-out: Inhibition of H460 cell proliferation IC50. The method, then:
as §1

For the next experiment, the system named is B16F10 cells. Kind of experiment: Proliferation assay (crystal violet), B16F10. Conditions: Mus musculus, B16-F10, 96 h; B16F10, 4 days; read-out: Inhibition of B16F10 cell proliferation IC50. How it is done: as §1
The subject of a further experiment is DU145 cells. Kind of experiment: Proliferation assay (crystal violet), DU145. The settings on record: Homo sapiens, DU-145, 96 h; DU145, 4 days; read-out: Inhibition of DU145 cell proliferation IC50. The method, then:
as §1

Structures are written as SMILES.

For the compound `CS(=O)(=O)Cc1cc(Nc2ncc(F)c(-c3ccc(F)cc3F)n2)cc(S(F)(F)(F)(F)F)c1` [Example 6, 4-(2,4-Difluorophenyl)-5-fluoro-N-{3-[(methylsulfonyl)methyl]-5-(pentafluoro-λ^6-sulfanyl)phenyl}pyrimidin-2-amine], the IC50 with HeLa-MaTu-ADR cells turned out to be 220 nM; with Caco-2 cells it was 382 nM; in the experiment on NCI-H460 cells, 386 nM; in the experiment on B16F10 cells it was 951 nM; in the experiment with DU145 cells it was 352 nM.
